From patent US20090093493A1, “1-PHENYLALCOXY-2-BETA-PHENYLETHYL DERIVATIVES AS P-GLYCOPROTEIN (P-GP) INHIBITORS USEFUL IN DRUG RESISTANCE EVENTS” (priority 2007, published 2009)
Where two headings read alike, the source gives them in different places.

Legend:
P-glycoprotein [1] = target: T1, P-glycoprotein (Homo sapiens, UniProt P08183); assay: Doxorubicin accumulation in MCF7/Adr cells after pretreatment with compound (flow cytometry); conditions: for endocellular accumulation: above-described assays
Protocol: (§1) Another assay is performed on MCF-7/ADr cells. These cells, resistant to the chemotherapy agent doxorubicin, are exposed for some hours to the compound under examination and subsequently treated with doxorubicin. The amount of doxorubicin entering the cell following treatment with the compounds under examination is then measured.
(§2) At the end of the incubation, the incubation medium containing the compound under examination was removed, and fresh medium containing 50 μM doxorubicin was added for 24 h. The negative control consisted of plates containing an alike number of cells untreated with the compound. At the end of the 24 h, the medium was removed and the cells split and prepared according to standard procedure for flow cytometry analysis.

P-glycoprotein [2] = target: T1, P-glycoprotein
Protocol: as §1, §2

P-gp [3] = target: T2, P-gp (Homo sapiens, UniProt P08183); assay: Classification of compounds interfering with P-gp activity (method of Polli et al. / Taub et al.); type: cell-based; design: apparent permeability determined in Caco-2 cells; endogenous in cells; host or cells: Caco-2; conditions: above-described assays
Description: The biological assays performed verify a) transport for each for each candidate compound by P-gp (apparent permeability determined in Caco-2 cells); b) ATP-ase activation in Caco-2 cells; c) inhibition of [^3H] Vinblastine basolateral-apical transport (in Caco-2 cells) and of rhodamine (in guinea pig ileum).

P-gp [4] = target: T2, P-gp; conditions: reported in literature; cited from earlier work
[5] = MCF7/Adr, 20 μM compound for 120 min, then 50 μM doxorubicin for 24 h

T1 sequence (P08183 whole entry): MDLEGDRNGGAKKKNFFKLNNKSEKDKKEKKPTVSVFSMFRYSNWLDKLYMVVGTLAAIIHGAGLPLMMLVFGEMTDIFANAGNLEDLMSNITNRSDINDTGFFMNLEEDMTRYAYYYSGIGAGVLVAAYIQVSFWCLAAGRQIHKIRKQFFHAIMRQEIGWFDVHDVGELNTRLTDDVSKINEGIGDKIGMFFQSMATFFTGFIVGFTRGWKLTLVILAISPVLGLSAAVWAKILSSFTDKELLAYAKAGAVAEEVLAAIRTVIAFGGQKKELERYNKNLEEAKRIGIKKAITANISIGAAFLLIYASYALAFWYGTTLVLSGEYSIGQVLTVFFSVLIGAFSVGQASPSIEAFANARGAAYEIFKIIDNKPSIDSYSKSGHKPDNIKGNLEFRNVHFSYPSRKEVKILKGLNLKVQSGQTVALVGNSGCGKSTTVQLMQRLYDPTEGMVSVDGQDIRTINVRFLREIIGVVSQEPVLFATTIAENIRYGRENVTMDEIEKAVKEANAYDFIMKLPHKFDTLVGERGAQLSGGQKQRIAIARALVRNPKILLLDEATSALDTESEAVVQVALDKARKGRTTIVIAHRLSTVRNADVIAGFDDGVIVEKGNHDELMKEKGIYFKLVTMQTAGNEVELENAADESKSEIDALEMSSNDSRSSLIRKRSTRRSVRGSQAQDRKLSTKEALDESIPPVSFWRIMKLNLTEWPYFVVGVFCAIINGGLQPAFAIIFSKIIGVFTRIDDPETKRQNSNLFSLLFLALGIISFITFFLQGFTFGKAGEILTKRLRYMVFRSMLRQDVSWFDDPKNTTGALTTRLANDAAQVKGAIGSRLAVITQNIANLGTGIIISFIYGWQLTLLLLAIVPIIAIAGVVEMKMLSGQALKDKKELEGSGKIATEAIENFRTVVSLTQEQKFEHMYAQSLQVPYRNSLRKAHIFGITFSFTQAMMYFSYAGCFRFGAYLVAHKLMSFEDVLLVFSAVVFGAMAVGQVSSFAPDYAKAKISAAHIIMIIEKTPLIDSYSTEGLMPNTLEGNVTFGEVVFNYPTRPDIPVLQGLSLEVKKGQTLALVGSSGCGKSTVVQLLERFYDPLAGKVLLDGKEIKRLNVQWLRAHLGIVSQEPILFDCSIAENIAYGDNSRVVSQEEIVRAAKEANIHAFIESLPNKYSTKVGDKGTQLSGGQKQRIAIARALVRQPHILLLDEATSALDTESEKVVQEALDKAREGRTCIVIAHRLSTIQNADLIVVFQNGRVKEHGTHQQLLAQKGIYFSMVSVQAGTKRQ
T2 sequence (P08183 whole entry): as above

SMILES	inletting of doxorubicin in the cells (P-glycoprotein [1]; [5])	endocellular accumulation (P-glycoprotein [1])	further results
COc1cccc(CCc2ccccc2OCc2ccccn2)c1 [EB12, 2({2-[2-(3-methoxyphenyl)ethyl]phenoxy}methyl]pyridine]	increase	very high	effectiveness in P-glycoprotein inhibition relative to Verapamil and EB27 (P-glycoprotein [1]; [5]): 5 fold
COc1cccc(CCc2ccccc2OCCCN2CCN(c3ncccn3)CC2)c1 [EB25, 3-{2-[2-(3-methoxyphenyl)ethyl]phenoxy}propan-1-[4-(2-pyrimidyl)piperazine]]			endocellular accumulation (P-glycoprotein [2]): very high
COc1cccc(CCc2ccccc2OCc2cccc(OC)c2)c1 [EB27, 1-[(3-methoxybenzyl)oxy]-2-[2-(3-methoxyphenyl)ethyl]benzene]	increase	very high	
c1ccc(CCc2ccccc2OCc2ccccc2)cc1 [EB 30, 1-(benzyloxy)-2-(2-phenylethyl)benzene]			Category of interference with P-gp activity (P-gp [3]): IIB
COc1cc2c(cc1OC)CN(CCc1ccc(NC(=O)c3cccc4c(=O)c5cccc(OC)c5[nH]c34)cc1)CC2 [GF120918]			classification as pure inhibitor of P-gp (P-gp [4]): sole pure inhibitor of P-gp
